Laboratory results taken from patent US5859207A (priority 1996, dated 1999).

Columns and labels:
[1] = system: Human peripheral blood mononuclear cells (PBMC)
[2] = system: human monocytes; format: binding
[3] = system: Human peripheral blood mononuclear cells (PBMC); format: cell-based

| Substance | TNFα production [1] | TNFα production by monocytes depleted of T cells [1] | cytotoxic activity neutralized by anti-TNFα antibody [1] | induction of TNFα production (in words) [1] | inhibition of biotinylated SEA(121-149) binding to monocytes [2] | IL-1 activity [3] | concentration at which native SEA is effective (TNFα induction) [1] |
| --- | --- | --- | --- | --- | --- | --- | --- |
| toxic shock syndrome toxin one [TSST-1] | 99 units/ml | approximately 25 units TNFα/ml | 76% | induced significant TNFα production | – | – | – |
| staphylococcal enterotoxin A [SEA] | – | – | 63% | – | specifically inhibited | 875±5 units/ml | 0.1 to 1 nM |
